Holding throughout (assay): KINOMEscan (ScanMAX) kinase profiling
Holding throughout (assay type): binding

Experiment [1] deals with T1, panel of 468 kinases (Homo sapiens, UniProt Q56UN5).
T1 construct: purchased KINOMEscan (ScanMAX) service
T1 sequence (Q56UN5 1-1328): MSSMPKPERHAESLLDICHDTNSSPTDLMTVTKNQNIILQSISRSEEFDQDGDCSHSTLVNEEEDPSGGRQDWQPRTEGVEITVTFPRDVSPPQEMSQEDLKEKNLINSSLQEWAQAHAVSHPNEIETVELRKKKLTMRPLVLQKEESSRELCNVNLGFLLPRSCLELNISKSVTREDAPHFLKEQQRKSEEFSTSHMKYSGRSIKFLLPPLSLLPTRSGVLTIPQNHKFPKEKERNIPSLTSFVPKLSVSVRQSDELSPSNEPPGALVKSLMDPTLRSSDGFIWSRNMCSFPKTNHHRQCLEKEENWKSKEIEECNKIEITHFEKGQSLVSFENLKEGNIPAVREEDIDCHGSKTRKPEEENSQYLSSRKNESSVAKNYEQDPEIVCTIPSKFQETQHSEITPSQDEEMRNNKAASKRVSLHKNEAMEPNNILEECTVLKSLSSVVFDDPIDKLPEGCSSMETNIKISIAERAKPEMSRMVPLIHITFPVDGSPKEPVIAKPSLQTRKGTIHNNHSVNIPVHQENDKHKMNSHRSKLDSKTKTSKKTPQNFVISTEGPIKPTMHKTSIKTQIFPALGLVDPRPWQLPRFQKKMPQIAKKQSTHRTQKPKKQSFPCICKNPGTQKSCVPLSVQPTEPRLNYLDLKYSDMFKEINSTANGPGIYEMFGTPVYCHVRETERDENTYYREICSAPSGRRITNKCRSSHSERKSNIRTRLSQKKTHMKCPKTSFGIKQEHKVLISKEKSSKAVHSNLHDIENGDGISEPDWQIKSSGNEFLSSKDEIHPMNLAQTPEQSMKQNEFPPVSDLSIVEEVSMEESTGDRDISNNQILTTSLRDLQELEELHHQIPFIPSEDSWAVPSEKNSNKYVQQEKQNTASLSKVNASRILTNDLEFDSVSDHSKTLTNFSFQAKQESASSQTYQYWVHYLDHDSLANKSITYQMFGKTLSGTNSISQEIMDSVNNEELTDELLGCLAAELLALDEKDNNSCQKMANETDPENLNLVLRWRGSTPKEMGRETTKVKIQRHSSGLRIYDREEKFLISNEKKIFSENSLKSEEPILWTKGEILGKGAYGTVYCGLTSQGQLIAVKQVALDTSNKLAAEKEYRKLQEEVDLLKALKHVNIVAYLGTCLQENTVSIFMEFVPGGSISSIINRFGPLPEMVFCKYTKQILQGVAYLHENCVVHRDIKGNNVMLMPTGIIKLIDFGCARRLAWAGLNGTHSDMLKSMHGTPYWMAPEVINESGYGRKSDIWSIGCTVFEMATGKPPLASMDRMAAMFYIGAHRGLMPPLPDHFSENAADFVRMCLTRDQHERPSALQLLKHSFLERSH
The following applies: YSK4; 1 μM; read-out: % control.

Experiment [2] addresses T2, panel of 468 kinases (Homo sapiens, UniProt O15146).
T2 construct: purchased KINOMEscan (ScanMAX) service
T2 sequence (O15146 24-869): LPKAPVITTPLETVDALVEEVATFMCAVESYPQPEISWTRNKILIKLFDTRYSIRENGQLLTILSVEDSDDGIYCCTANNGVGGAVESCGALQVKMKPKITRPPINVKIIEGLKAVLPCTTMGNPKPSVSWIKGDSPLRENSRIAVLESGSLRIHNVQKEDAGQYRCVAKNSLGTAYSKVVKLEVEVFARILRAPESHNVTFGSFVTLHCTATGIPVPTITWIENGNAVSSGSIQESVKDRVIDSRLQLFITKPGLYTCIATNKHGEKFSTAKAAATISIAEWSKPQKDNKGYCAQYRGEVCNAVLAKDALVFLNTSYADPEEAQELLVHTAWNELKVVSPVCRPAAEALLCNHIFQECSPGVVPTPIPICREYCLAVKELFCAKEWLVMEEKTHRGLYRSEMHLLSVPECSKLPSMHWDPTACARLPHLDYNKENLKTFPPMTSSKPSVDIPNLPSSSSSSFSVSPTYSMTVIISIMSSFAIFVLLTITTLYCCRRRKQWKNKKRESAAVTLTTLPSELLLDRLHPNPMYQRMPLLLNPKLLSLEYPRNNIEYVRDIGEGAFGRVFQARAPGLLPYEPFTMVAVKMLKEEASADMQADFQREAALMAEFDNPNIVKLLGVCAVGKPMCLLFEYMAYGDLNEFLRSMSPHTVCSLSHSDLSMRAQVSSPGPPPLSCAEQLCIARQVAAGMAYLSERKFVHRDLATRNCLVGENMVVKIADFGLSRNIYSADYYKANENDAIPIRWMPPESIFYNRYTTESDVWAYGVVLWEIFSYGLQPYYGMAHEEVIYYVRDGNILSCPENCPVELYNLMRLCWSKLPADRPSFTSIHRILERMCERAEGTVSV
The following applies: MUSK; 1 μM; read-out: % control.

Experiment [3] deals with T3, panel of 468 kinases (Homo sapiens, UniProt P68400).
T3 construct: purchased KINOMEscan (ScanMAX) service
T3 sequence (P68400 whole entry): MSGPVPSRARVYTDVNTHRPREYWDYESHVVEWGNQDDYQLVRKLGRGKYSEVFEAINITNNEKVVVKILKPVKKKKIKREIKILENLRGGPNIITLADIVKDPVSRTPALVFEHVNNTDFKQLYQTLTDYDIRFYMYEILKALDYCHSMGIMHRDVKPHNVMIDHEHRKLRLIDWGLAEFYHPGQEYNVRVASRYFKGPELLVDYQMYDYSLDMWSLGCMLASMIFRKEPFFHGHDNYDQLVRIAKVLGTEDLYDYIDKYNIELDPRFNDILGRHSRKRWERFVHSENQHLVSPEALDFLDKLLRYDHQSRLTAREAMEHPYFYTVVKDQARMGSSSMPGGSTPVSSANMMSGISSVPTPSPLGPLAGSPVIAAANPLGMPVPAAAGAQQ
The following applies: CSNK2A1; 1 μM; read-out: % control.

For experiment [4], the target named is T4, panel of 468 kinases (Homo sapiens, UniProt P49761).
T4 construct: purchased KINOMEscan (ScanMAX) service
T4 sequence (P49761 whole entry): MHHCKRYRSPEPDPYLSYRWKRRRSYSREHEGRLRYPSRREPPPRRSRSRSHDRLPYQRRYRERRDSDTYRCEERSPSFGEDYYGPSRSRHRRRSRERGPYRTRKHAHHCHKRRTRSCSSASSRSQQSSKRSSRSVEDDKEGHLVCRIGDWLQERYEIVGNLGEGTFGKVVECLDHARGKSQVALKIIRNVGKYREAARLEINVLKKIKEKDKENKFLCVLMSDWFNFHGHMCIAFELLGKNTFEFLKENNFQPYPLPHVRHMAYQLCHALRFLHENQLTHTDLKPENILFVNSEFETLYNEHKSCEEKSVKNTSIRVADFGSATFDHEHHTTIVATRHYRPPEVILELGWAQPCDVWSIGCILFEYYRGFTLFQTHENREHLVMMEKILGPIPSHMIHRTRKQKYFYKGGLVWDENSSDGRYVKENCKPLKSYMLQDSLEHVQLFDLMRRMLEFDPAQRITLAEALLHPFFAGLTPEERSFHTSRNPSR
The following applies: CLK3; 1 μM; read-out: % control.

As to `CNc1nc(Nc2ccc(S(=O)(=O)N3CCC(N4CCOCC4)CC3)cc2OC)nc2[nH]cc(Cl)c12` [Compound 12, 5-chloro-N2-(2-methoxy-4-((4-morpholinopiperidin-1-yl)sulfonyl)phenyl)-N4-methyl-7H-pyrrolo[2,3-d]pyrimidine-2,4-diamine], the remaining binding at 1 µM is 59% in experiment [1], 98% in experiment [2], 63% in experiment [3] and 77% in experiment [4].
As for `CNc1nc(Nc2ccc(P3(=O)CCN(C4CCOCC4)CC3)cc2OC)nc2[nH]cc(Cl)c12` [Compound 77, 4-(4-((5-chloro-4-(methylamino)-7H-pyrrolo[2,3-d]pyrimidin-2-yl)amino)-3-methoxyphenyl)-1-(tetrahydro-2H-pyran-4-yl)-1,4-azaphosphinane 4-oxide], the remaining binding at 1 µM in experiment [1] was 4.2%; in experiment [2], 72%; in experiment [3], 59%; in experiment [4], 93%.
In the same order, the values of `CNc1nc(Nc2ccc(C(=O)N3CCC(N4CCOCC4)CC3)c3c2OCO3)nc2[nH]cc(Cl)c12` [Compound 75, (7-((5-chloro-4-(methylamino)-7H-pyrrolo[2,3-d]pyrimidin-2-yl)amino)benzo[d][1,3]dioxol-4-yl)(4-morpholinopiperidin-1-yl)methanone] are 0.25%, 21%, 24% and 58%.
